Experimental data reported in patent US4213994A, “Imidazolyl-(2)-carbinols having hypolipidemic action and process for preparing them” (Hoechst Aktiengesellschaft, priority 1971, dated 1980).
Read-outs that look alike come from different tables or passages of the source.

How the values were obtained:
[1] = solubility in the usual solvents; assay type: physicochemical
[2] = acute toxicity, LD50 determined on the mouse upon oral administration; settings: in vivo
From the text: While having an extremely low acute toxicity (cf. LD50 -values in Table I), the imidazolyl-(2)-carbinols reduce the lipid level in the serum and reduce artificially produced hyperlipidemia.
The values in brackets of the first column designate the LD50values
(§1) in g/kg, determined on the mouse upon oral administration. The values

serum lipid level = test: Standard test on a male rat with normal serum lipid level (hypolipidemic action, 8 peroral administrations); assay type: in vivo; settings: for change in vivo at 100 mg/kg / change in vivo at 30 mg/kg / change in vivo at 10 mg/kg: Rattus norvegicus, po, 192 h
Protocol: 1. Standard test on a male rat with normal serum lipid level
The period of time used for the experiment was 8 days. Administration was effected once daily with the aid of an oesophageal sound with doses of 100, 30 and 10 mg/kg, respectively. In general, blood was withdrawn prior to and after the treatment and the concentration of cholesterin was determined in the serum according to the method described by Lauber and Richterich and that of triglycerides according to the method described by Eggstein and Kreutz.
as §1
before the oblique stroke of the other columns denote the percentual
change of the posterior value (value after the treatment) referred to the
anterior value (starting value before the treatment) of the group of
preparations, the anterior value being 100%; the values behind the obliqu
stroke indicate the percentual change of the posterior value of the group
treated with reference to the posterior value (= 100%) of a placebo group

triton-hyperlipidemia = test: Triton-Hyperlipidemia of the male rat (inhibition of triton-hyperlipidemia); assay type: in vivo; settings: 4-days pre-treatment; for Inhibition of triton-hyperlipidemia, Serum-cholesterin / Inhibition of triton-hyperlipidemia, Serum-triglyceride: 300 mg/kg Triton WR 1339 i.p., Triton control = 100%
Protocol: 2. Triton-Hyperlipidemia of the male rat
The influence of a 4-days pre-treatment with the compound of Example 1 on the formation of hyperlipidemia produced by i.p. application of 300 mg/kg of Triton ® WR 1339 was tested in comparison to a control group (=100%) which had only been treated with Triton.

[3] = system: dietetic hypercholesterinemia; test: Dietetic hypercholesterinemia of the male rat (inhibition of dietetic hypercholesterinemia); assay type: in vivo; settings: 100 mg/kg p.o. once daily
Protocol: 3. Dietetic hypercholesterinemia of the male rat
Hypercholesterinemia was produced by the addition of 2% of cholesterin and 20% of coconut fat (Palmin) to the normal fodder. The rise of the cholesterin level was determined by comparison with a control group (=100%) which had been given normal fodder only. (Line 1 in Table III). The animals of the preparation group obtained at the same time of the begin of the diet daily once 100 mg/kg p.o. of the compound of Example 1. […]

[4] = 100 mg/kg/day p.o., 8 administrations, value before the oblique stroke (anterior value = 100%), read-out: % change of Serum-Cholesterin, after treatment vs starting value before treatment
[5] = 100 mg/kg/day p.o., 8 administrations, value before the oblique stroke (anterior value = 100%), read-out: % change of Serum-triglycerides, after treatment vs starting value before treatment
[6] = 100 mg/kg/day p.o., 8 administrations, value behind the oblique stroke (placebo posterior value = 100%), read-out: % change of Serum-triglycerides, treated group vs placebo group
[7] = 30 mg/kg/day p.o., 8 administrations, value before the oblique stroke (anterior value = 100%), read-out: % change of Serum-Cholesterin, after treatment vs starting value before treatment
[8] = 30 mg/kg/day p.o., 8 administrations, value before the oblique stroke (anterior value = 100%), read-out: % change of Serum-triglycerides, after treatment vs starting value before treatment
[9] = 100 mg/kg/day p.o., 8 administrations, value behind the oblique stroke (placebo posterior value = 100%), read-out: % change of Serum-Cholesterin, treated group vs placebo group
[10] = 30 mg/kg/day p.o., 8 administrations, value behind the oblique stroke (placebo posterior value = 100%), read-out: % change of Serum-triglycerides, treated group vs placebo group
[11] = 10 mg/kg/day p.o., 8 administrations
[12] = 30 mg/kg/day p.o., 8 administrations, value behind the oblique stroke (placebo posterior value = 100%), read-out: % change of Serum-Cholesterin, treated group vs placebo group
[13] = read-out: % change of Serum-Cholesterin, after treatment vs starting value before treatment
[14] = read-out: % change of Serum-triglycerides, after treatment vs starting value before treatment
[15] = read-out: % change of Serum-triglycerides, treated group vs placebo group

| Structure (SMILES) | LD50 [2] | change in vivo at 100 mg/kg (serum lipid level; [4]) | change in vivo at 100 mg/kg (serum lipid level; [5]) | change in vivo at 100 mg/kg (serum lipid level; [6]) | change in vivo at 30 mg/kg (serum lipid level; [7]) | change in vivo at 30 mg/kg (serum lipid level; [8]) | change in vivo at 100 mg/kg (serum lipid level; [9]) | change in vivo at 30 mg/kg (serum lipid level; [10]) | other results |
| --- | --- | --- | --- | --- | --- | --- | --- | --- | --- |
| OC(c1ccccc1)(c1ncc[nH]1)c1ncc[nH]1 [Example 7, Bis-[imidazolyl-(2)]-phenyl-carbinol] | > 4000 mg/kg | -7% | -18% | -18% | – | – | – | – | solubility (in words) [1]: not soluble or poorly soluble only in the usual solvents |
| CC(C)n1ccnc1C(C)(O)c1ccc(Cl)cc1 (stereo not drawn) [Example 8, Methyl-(p-chlorophenyl)-[1-isopropylimidazolyl-(2)]-carbinol] | > 4000 mg/kg | -14% | -39% | -21% | – | – | – | – | – |
| OC1(c2nccn2Cc2ccccc2)c2ccccc2-c2ccccc21 [Example 4, 9-[1-Benzylimidazolyl-(2)]-fluorene-9-ol] | > 4000 mg/kg | -16% | -48% | -37% | -11% | -25% | -21% | – | – |
| COc1ccc(C(O)c2nccn2-c2ccccc2)cc1OC (stereo not drawn) [Example 11, (3,4-Dimethoxy-phenyl)-[1-phenylimidazolyl-(2)]-carbinol] | > 4000 mg/kg | -24% | -32% | -21% | – | – | -3% | – | – |
| Cn1c(C(O)(c2ccccc2)c2ccc(Cl)cc2Cl)nc2ccccc21 (stereo not drawn) [Example 6, Phenyl-(2,4-dichlorophenyl)-[1-methylbenzimidazolyl-(2)]-carbinol] | > 4000 mg/kg | -12% | -46% | -35% | -20% | -19% | -25% | -29% | – |
| CCOC(=O)C(C)(C)Oc1ccc(Cl)cc1 [Clofibrate, 2-(p-chlorophenoxy)-isobutyric acid ethyl ester, reference compound] | 2000 to 2500 mg/kg | -22% | -30% | -30% | -5% | -4% | -13% | -7% | Inhibition of triton-hyperlipidemia, Serum-cholesterin (in words) (triton-hyperlipidemia; 10 mg/kg/day p.o.): ineffective; Inhibition of triton-hyperlipidemia, Serum-triglyceride (in words) (triton-hyperlipidemia; 10 mg/kg/day p.o.): ineffective; Inhibition of triton-hyperlipidemia, Serum-cholesterin (triton-hyperlipidemia; 100 mg/kg/day p.o.): -29%; Inhibition of triton-hyperlipidemia, Serum-triglyceride (triton-hyperlipidemia; 100 mg/kg/day p.o.): -16%; change of Serum-Cholesterin (in words) (serum lipid level; [11]): ineffective; change of Serum-triglycerides (in words) (serum lipid level; [11]): ineffective; change in vivo at 30 mg/kg (serum lipid level; [12]): -8% |
| CC(O)c1nccn1Cc1ccccc1 (stereo not drawn) [Example 2, 1-[1-benzylimidazolyl-(2)]-ethanol] | 1120 mg/kg | -24% | – | -4% | – | – | -3% | – | – |
| CC(C)n1ccnc1C(O)C(Cl)(Cl)Cl (stereo not drawn) [Example 3, 1-[1-Isopropylimidazolyl-(2)]-2,2,2-trichloroethanol] | > 4000 mg/kg | – | – | – | – | – | – | – | change in vivo at 30 mg/kg (serum lipid level; [13]): -16%; change in vivo at 100 mg/kg (serum lipid level; [13]): -6%; change in vivo at 100 mg/kg (serum lipid level; read-out: % change of Serum-Cholesterin, treated group vs placebo group): -18%; change in vivo at 30 mg/kg (serum lipid level; [14]): -21%; change in vivo at 100 mg/kg (serum lipid level; [14]): -57%; change in vivo at 30 mg/kg (serum lipid level; [15]): -6%; change in vivo at 100 mg/kg (serum lipid level; [15]): -30% |
| Cn1c(C(O)c2nccn2Cc2ccccc2)nc2ccccc21 (stereo not drawn) [Example 9, [1-Benzylimidazolyl-(2)]-[1-methylbenzimidazolyl-(2)]-carbinol] | > 4000 mg/kg | -21% | -40% | -24% | – | – | -11% | – | – |
| Cn1ccnc1C(O)(c1ccccc1)c1ccc(Cl)cc1Cl (stereo not drawn) [Example 5, Phenyl-(2,4-dichlorophenyl)-[1-methylimidazolyl-(2)]-carbinol] | > 4000 mg/kg | -19% | -37% | -35% | -23% | -1% | -32% | -17% | change in vivo at 30 mg/kg (serum lipid level; [12]): -9% |
| CC(O)(c1ccc(OC(F)(F)C(F)Cl)cc1)c1nccn1Cc1ccccc1 (stereo not drawn) [Example 10, 1-[p-(1,1,2-trifluoro-2-chloro-ethoxy)-phenyl]-1-[1-benzylimidazolyl-(2)]-ethanol] | > 4000 mg/kg | -36% | -56% | -26% | – | – | -21% | – | – |
| OC(c1ccccc1)(c1nccn1Cc1ccccc1)c1nccn1Cc1ccccc1 [Example 1, Bis-[1-benzylimidazolyl-(2)]-phenyl-carbinole] | > 4000 mg/kg | – | – | – | -33% | -25% | – | -10% | % change of the total cholesterin content in the serum, inhibition due to preparation (diet = 100%) ([3]; after 8 days): -23%; % change of the total cholesterin content in the serum, inhibition due to preparation (diet = 100%) ([3]; after 20 days): -19%; % change of the total cholesterin content in the serum, inhibition due to preparation (diet = 100%) ([3]; after 33 days): -9%; Inhibition of triton-hyperlipidemia, Serum-cholesterin (triton-hyperlipidemia; 10 mg/kg/day p.o.): -31%; Inhibition of triton-hyperlipidemia, Serum-triglyceride (triton-hyperlipidemia; 10 mg/kg/day p.o.): -40%; Inhibition of triton-hyperlipidemia, Serum-cholesterin (triton-hyperlipidemia; 100 mg/kg/day p.o.): -28%; Inhibition of triton-hyperlipidemia, Serum-triglyceride (triton-hyperlipidemia; 100 mg/kg/day p.o.): -35%; change in vivo at 10 mg/kg (serum lipid level; 10 mg/kg/day p.o., 8 administrations, value before the oblique stroke (anterior value = 100%), read-out: % change of Serum-Cholesterin, after treatment vs starting value before treatment): -10%; change in vivo at 10 mg/kg (serum lipid level; 10 mg/kg/day p.o., 8 administrations, value behind the oblique stroke (placebo posterior value = 100%), read-out: % change of Serum-Cholesterin, treated group vs placebo group): -12%; change in vivo at 10 mg/kg (serum lipid level; 10 mg/kg/day p.o., 8 administrations, value behind the oblique stroke (placebo posterior value = 100%), read-out: % change of Serum-triglycerides, treated group vs placebo group): -13%; change in vivo at 30 mg/kg (serum lipid level; [12]): -10% |
